These results are taken from US11566047B2, “Peptide or pharmaceutically acceptable salt thereof, or prodrug thereof” (TOKYO UNIVERSITY OF PHARMACY & LIFE SCIENCES, priority 2016, dated 2023).

Peptide text beside a SMILES is read from it. R111 = not defined here

For test [1], the target named is T1, myostatin (Homo sapiens, UniProt O14793).
T1 sequence (O14793 267-375): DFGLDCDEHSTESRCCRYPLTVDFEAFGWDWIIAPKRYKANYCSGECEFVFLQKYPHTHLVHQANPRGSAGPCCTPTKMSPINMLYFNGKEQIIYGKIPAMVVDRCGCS
The test can be described thus: cell-based. Conditions: HEK293, read-out: luciferase activity (relative; myostatin without test sample = 100%). How it is done: Human embryo kidney cell HEK293 cells were cultured in a 5% (v/v) CO2 incubator set to 37° C. using DMEM (NACALAI TESQUE, INC.) including a 10% (v/v) fetal bovine serum (FBS) added with a 1% (v/v) non-essential amino acid (Wako Pure Chemical Corporation).
(2) In Vitro Reporter Assay
HEK293 cells were seeded on a D-Lys-corted 96-well transparent plate (Thermo Fisher Scientific Inc.) in an amount of 2.0×10^4 cells (100 μL DMEM+10% (v/v) FBS) per well and were cultured for 24 hours.
The cells were cultured at 37° C. for 24 hours, and after the cell culture solution was replaced with serum-free DMEM, the cells were cultured for 8 hours. Incidentally, pGL4.48 [luc2P/SBE/Hygro] includes firefly luciferase reporter gene luc2P under Smad binding region (SBE) control, and when a signaling pathway by the myostatin is activated, intracellular Smad forms a complex, and the complex is bonded to SBE to promote transcription of luc2P.
The peptide as a test sample was suspended as a stock solution using DMSO to become 10 mM and stored at −30° C. Before 1 hour from addition to the culture medium, the peptide and a myostatin (Merck Millipore Corp.) were suspended with serum-free DMEM and left to stand still at room temperature (25° C.) for 20 minutes. Subsequently, a peptide with an arbitrary final concentration (0.3 to […]) and 8 ng/mL of myostatin were added to the culture medium, and then culturing was performed for 4 hours. After culturing for 4 hours, the culture solution was removed by an aspirator and the cells were washed with 1×PBS. Thereafter, Passive Lysis buffer (Promega Corporation) was added in an amount of 50 μL per well to dissolve the cells. The dissolving solution was subjected to centrifugal separation at 4500 rpm for 6 minutes under the condition of 4° C. After 20 μL of supernatant subjected to centrifugal separation was transferred to a white 96-well plate (Costar), 50 μL of Luciferase Assay Reagent (Promega Corporation) was then added, emission was detected by Luminoskan Ascent (Thermo Fisher Scientific Inc.), and a firefly luciferase activity was measured. Further, after 50 μL of Stop & Glo Buffer (Promega Corporation) was added, emission was detected by Luminoskan Ascent, and a Renilla luciferase activity was measured to be regarded as an internal control.

The test system of test [2] is calf muscles of mdx mice and C57BL/6 mice. The experiment in a line: Influence on calf muscles of mdx mice and C57BL/6 mice (cross-sectional areas of muscle fibers). Format: in vivo. How it is done:
Evaluation was performed by the following method in order to check the muscle mass increasing effect in vivo of nPDM-55/E31R prepared in Synthesis Example 36.
nPDM-55/E31R was dissolved in saline to become 0.75 mM. 40 μL of nPDM-55/E31R was intramuscularly administered into the calf muscles of both legs of anesthetized mdx mice and C57BL/6 mice aged 5 weeks (all mice were males, purchased from CLEA Japan, Inc.) (40 μL of saline was intramuscularly administered into the calf muscles of both legs of control mice). After 2 weeks, the same amount of nPDM-55/E31R was administered to the same site again. After further 4 weeks, the mice were subjected to necropsy, the calf muscles were excised from the both legs and transverse frozen sections (6 μm) were formed using cryostat. Regarding three sections stained with Hematoxylin-Eosin and randomly selected, cross-sectional areas of muscle fibers (200 fibers) were analyzed by a fluorescence microscope BZX700 (KEYENCE CORPORATION).

In test [3] the test system is mdx mice. The test can be described thus: Influence on serum creatine kinase level of mdx mice. Conditions: mdx male mice; 40 μL of 0.75 mM intramuscular into calf muscles of both legs on day 0 and day 14. The test is classed as in vivo. As for the experimental part: Evaluation was performed by the following method in order to check the effect of nPDM-55/E31R prepared in Synthesis Example 36 to a serum creatine kinase (CK) value in mdx mice. Incidentally, 3d prepared in Synthesis Example 75 was used as Comparative Example.
nPDM-55/E31R and 3d were dissolved in saline to become 0.75 mM. 40 μL of nPDM-55/E31R was intramuscularly administered into the calf muscles of both legs of anesthetized mdx mice aged 5 weeks (all mice were males, purchased from CLEA Japan, Inc.). After 2 weeks, the same amount of nPDM-55/E31R was administered to the same site again. Serum samples were collected immediately before administration of nPDM-55/E31R and 3d (day 0, day 14) and further also collected after 4 weeks (day 42). […] From those results, it was shown that nPDM-55/E31R has an effect of continually maintaining the CK level in blood to be low as compared to 3d.

Test [4] has as its system anterior tibial muscles of mdx mice. The experiment in a line: Influence on anterior tibial muscles of Duchenne muscular dystrophy model mdx mice (muscle weight). Conditions: mdx male mice aged 5 weeks; 40 μL of 0.75 mM intramuscular, again after 2 weeks; necropsy after further 4 weeks; vs saline leg; average of three mice. Format: in vivo. As for the experimental part: Regarding PDM-46 prepared in Synthesis Example 18, evaluation was performed by the following method in order to check the muscle mass increasing effect in vivo.
PDM-46 was dissolved in saline to become 0.75 mM. 40 μL of PDM-46 was intramuscularly administered into the left leg anterior tibial muscles of anesthetized mdx male mice aged 5 weeks (purchased from CLEA Japan, Inc.) (as a control, 40 μL of saline was intramuscularly administered into the right leg anterior tibial muscles). After 2 weeks, the same amount of PDM-46 was administered to the same site again. After further 4 weeks, the mice were subjected to necropsy, the anterior tibial muscles were excised from the both legs, and the weight thereof was measured.

In the case of `CC[C@H](C)[C@H](NC(=O)[C@H](CCC(N)=O)NC(=O)[C@@H](NC(=O)[C@H](CCCCN)NC(=O)[C@@H](NC(=O)[C@H](Cc1c[nH]c2ccccc12)NC(=O)[C@H](CCCNC(=N)N)NC(=O)[C@@H](NC(=O)[C@H](Cc1ccc(O)cc1)NC(=O)[C@@H](N)Cc1c[nH]c2ccccc12)[C@@H](C)CC)[C@@H](C)CC)[C@@H](C)CC)C(=O)N[C@@H](Cc1c[nH]c2ccccc12)C(=O)N[C@@H](CO)C(=O)N[C@@H](CCCCN)C(=O)N[C@@H](CC(C)C)C(=O)N[C@@H](CCCNC(=N)N)C(=O)N[C@@H](CC(C)C)C(N)=O` [nPDM-55/E31R, WYIRWIKIQIWSKLRL-NH2] (H-WYIRWIKIQIWSKLRL-NH2), the remaining activity at 0.3 µM in test [1] is at most 60%. Moreover, the “cross-sectional areas of muscle fibers of calf muscles” value in test [2] (mdx and C57BL/6 male mice, 40 μL of 0.75 mM intramuscular into both legs, again after 2 weeks, after further 4 weeks, vs saline mice) is listed as “increased”. Further, in test [2] (mdx and C57BL/6 mice, Hematoxylin-Eosin stained sections), the “nature of the obtained muscular hypertrophy (analysis images)” value was “not inflammatory”. In addition, in test [3], the “serum creatine kinase (CK) level on day 14 versus day 0” value is “clearly lower value” and the “serum creatine kinase (CK) level on day 42” value is on record as “clearly lower value”.
For “R^111-WYIESIKIQIISKLRL-NH2 (R111-WYIESIKIQIISKLRL-NH2; reading uncertain; also: printed as R^111-WYIESIKIQIISKLRL-NH2) [PDM-46, R^111 = group of Formula (4), drawing 8]”, the “increase of muscle mass of anterior tibial muscles in terms of weight” value in test [4] is recorded as “about 13%”.
